Where two headings read alike, the source gives them in different places.
Columns and labels:
Assay type in all cases: cell-based
[1] = biological target: T1, rat α1B+α2b+β1b channels (N-type channels) (Rattus norvegicus, UniProt Q02294); assay: Whole cell patch recordings, N-type calcium channel block (Examples 1 and 4); details: block of N-type calcium channels, HEK cells, 5 mM barium as charge carrier
T1 construct: expressed in transfected cells
Description: Antagonist activity was measured using whole cell patch recordings on human embryonic kidney cells either stably or transiently expressing rat α1B+α2b+β1b channels (N-type channels) with 5 mM barium as a charge carrier.
For transient expression, host cells, such as human embryonic kidney cells, HEK 293 (ATCC# CRL 1573) were grown in standard DMEM medium supplemented with 2 mM glutamine and 10% fetal bovine serum. HEK 293 cells were transfected by a standard calcium-phosphate-DNA coprecipitation method using the rat α1B+β1b+α2δ N-type calcium channel subunits in a vertebrate expression vector (for example, see Current Protocols in Molecular Biologyl ).
After an incubation period of from 24 to 72 hrs the culture medium was removed and replaced with external recording solution (see below). Whole cell patch clamp experiments were performed using an Axopatch 200B amplifier (Axon Instruments, Burlingame, Calif.) linked to an IBM compatible personal computer equipped with pCLAMP software. Borosilicate glass patch pipettes (Sutter Instrument Co., Novato, Calif.) were polished (Microforge, Narishige, Japan) to a resistance of about 4 MΩ when filled with cesium methanesulfonate internal solution (composition in MM: 109 CsCH3SO4, 4 MgCl2, 9 EGTA, 9 HEPES, pH 7.2). Cells were bathed in 5 mM Ba^++ (in mM: 5 BaCl2, 1 MgCl2, 10 HEPES, 40 tetraethylammonium chloride, 10 glucose, 87.5 CsCl pH 7.2). Current data shown were elicited by a train of 100 ms test pulses at 0.066 Hz from −100 mV and/or −80 mV to various potentials (min. −20 mV, max. +30 mV). Drugs were perfused directly into the vicinity of the cells using a microperfusion system.
Normalized dose-response curves were fit (Sigmaplot 4.0, SPSS Inc., Chicago, Ill.) by the Hill equation to determine IC50 values. Steady-state inactivation curves were plotted as the normalized test pulse amplitude following 5 s inactivating prepulses at +10 mV increments. Inactivation curves were fit (Sigmaplot 4.0) with the Boltzman equation, Ipeak (normalized)=1/(1+exp((V−Vh)z/25.6)), where V and Vh are the conditioning and half inactivation potentials, respectively, and z is the slope factor.

[2] = biological target: T2, N-type calcium channels (α1B+α2δ+β1b cDNA subunits) (Rattus norvegicus, UniProt Q02294); assay: Whole cell patch clamp, tonic and frequency dependent block, N-type channels in HEK 293 (Example 5); details: for % Block (100 nM) 0.03 Hz: 0.03 Hz (tonic block); for % Block (100 nM) 0.2 Hz: 0.2 Hz (frequency dependent block)
T2 construct: expressed in transfected cells
Description: (§1) N-type calcium channel blocking activity was assayed in human embryonic kidney cells, HEK 293, stably transfected with the rat brain N-type calcium channel subunits (α1B+α2δ+β1b cDNA subunits). Alternatively, N-type calcium channels (α1B+α2δ+β1b cDNA subunits), L-type channels (α1C+α2δ+β1b cDNA subunits) and P/Q-type channels (α1A+α2δ+β1b cDNA subunits) were transiently expressed in HEK 293 cells. Briefly, cells were cultured in Dulbecco's modified eagle medium (DMEM) supplemented with 10% fetal bovine serum, 200 U/ml penicillin and 0.2 mg/ml streptomycin at 37° C. with 5% CO2. At 85% confluency cells were split with 0.25% trypsin/1 mM EDTA and plated at 10% confluency on glass coverslips. At 12 hours the medium was replaced and the cells transiently transfected using a standard calcium phosphate protocol and the appropriate calcium channel cDNAs. Fresh DMEM was supplied and the cells transferred to 28° C./5% CO2. Cells were incubated for 1 to 2 days to whole cell recording.
(§2) Whole cell patch clamp experiments were performed using an Axopatch 200B amplifier (Axon Instruments, Burlingame, Calif.) linked to a personal computer equipped with pCLAMP software. The external and internal recording solutions contained, respectively, 5 mM BaCl2, 1 mM MgCl2, 10 mM HEPES, 40 mM TEACl, 10 mM glucose, 87.5 mM CsCl (pH 7.2) and 108 mM CsMS, 4 mM MgCl2, 9 mM EGTA, 9 mM HEPES (pH 7.2). Currents were typically elicited from a holding potential of −80 mV to +10 mV using Clampex software (Axon Instruments). Typically, currents were first elicited with low frequency stimulation (0.03 Hz) and allowed to stabilize prior to application of the compounds. The compounds were then applied during the low frequency pulse trains for two to three minutes to assess tonic block, and subsequently the pulse frequency was increased to 0.2 Hz to assess frequency dependent block. Data were analyzed using Clampfit (Axon Instruments) and SigmaPlot 4.0 (Jandel Scientific).

[3] = biological target: T3, L-type channels (α1C+α2δ+β1b cDNA subunits) (UniProt P22002); assay: Whole cell patch clamp, tonic and frequency dependent block, L-type channels in HEK 293 (Example 5)
T3 construct: other: α1C (L-type), 100 nM, 0.03 Hz; other: α1C (L-type), 100 nM, 0.2 Hz; other: α1C (L-type), 0.03 Hz; other: α1C (L-type), 0.2 Hz
Description: as §1, §2
(§3) Tables 2 and 3 show the results of similar experiments conducted with P/Q-type and L-type channels expressed in HEK 293 cells.

[4] = biological target: P/Q-type channels (α1A+α2δ+β1b cDNA subunits) (UniProt P54282); assay: Whole cell patch clamp, tonic and frequency dependent block, P/Q-type channels in HEK 293 (Example 5)
Description: as §1, §2, §3

[5] = Table 4 summary, 0.2 Hz, N-type, unit not given in Table 4 (μM in Table 1), read-out: N (IC50 values)
[6] = α1B (N-type), 0.03 Hz, read-out: Estimated IC50 (μM) 0.03 Hz
[7] = α1B (N-type), 0.2 Hz, read-out: Estimated IC50 (μM) 0.2 Hz
[8] = Table 4 summary, 0.2 Hz, L-type, unit not given in Table 4 (μM in Table 3), read-out: L (IC50 values)
[9] = α1C (L-type), 0.03 Hz, read-out: Estimated IC50 (μM) 0.03 Hz
[10] = α1C (L-type), 0.2 Hz, read-out: Estimated IC50 (μM) 0.2 Hz
[11] = Table 4 summary, 0.2 Hz, P/Q-type, unit not given in Table 4 (μM in Table 2), read-out: P/Q (IC50 values)
[12] = α1A (P/Q-type), 0.03 Hz, read-out: Estimated IC50 (μM) 0.03 Hz
[13] = α1A (P/Q-type), 0.2 Hz, read-out: Estimated IC50 (μM) 0.2 Hz

T1 sequence (Q02294 whole entry): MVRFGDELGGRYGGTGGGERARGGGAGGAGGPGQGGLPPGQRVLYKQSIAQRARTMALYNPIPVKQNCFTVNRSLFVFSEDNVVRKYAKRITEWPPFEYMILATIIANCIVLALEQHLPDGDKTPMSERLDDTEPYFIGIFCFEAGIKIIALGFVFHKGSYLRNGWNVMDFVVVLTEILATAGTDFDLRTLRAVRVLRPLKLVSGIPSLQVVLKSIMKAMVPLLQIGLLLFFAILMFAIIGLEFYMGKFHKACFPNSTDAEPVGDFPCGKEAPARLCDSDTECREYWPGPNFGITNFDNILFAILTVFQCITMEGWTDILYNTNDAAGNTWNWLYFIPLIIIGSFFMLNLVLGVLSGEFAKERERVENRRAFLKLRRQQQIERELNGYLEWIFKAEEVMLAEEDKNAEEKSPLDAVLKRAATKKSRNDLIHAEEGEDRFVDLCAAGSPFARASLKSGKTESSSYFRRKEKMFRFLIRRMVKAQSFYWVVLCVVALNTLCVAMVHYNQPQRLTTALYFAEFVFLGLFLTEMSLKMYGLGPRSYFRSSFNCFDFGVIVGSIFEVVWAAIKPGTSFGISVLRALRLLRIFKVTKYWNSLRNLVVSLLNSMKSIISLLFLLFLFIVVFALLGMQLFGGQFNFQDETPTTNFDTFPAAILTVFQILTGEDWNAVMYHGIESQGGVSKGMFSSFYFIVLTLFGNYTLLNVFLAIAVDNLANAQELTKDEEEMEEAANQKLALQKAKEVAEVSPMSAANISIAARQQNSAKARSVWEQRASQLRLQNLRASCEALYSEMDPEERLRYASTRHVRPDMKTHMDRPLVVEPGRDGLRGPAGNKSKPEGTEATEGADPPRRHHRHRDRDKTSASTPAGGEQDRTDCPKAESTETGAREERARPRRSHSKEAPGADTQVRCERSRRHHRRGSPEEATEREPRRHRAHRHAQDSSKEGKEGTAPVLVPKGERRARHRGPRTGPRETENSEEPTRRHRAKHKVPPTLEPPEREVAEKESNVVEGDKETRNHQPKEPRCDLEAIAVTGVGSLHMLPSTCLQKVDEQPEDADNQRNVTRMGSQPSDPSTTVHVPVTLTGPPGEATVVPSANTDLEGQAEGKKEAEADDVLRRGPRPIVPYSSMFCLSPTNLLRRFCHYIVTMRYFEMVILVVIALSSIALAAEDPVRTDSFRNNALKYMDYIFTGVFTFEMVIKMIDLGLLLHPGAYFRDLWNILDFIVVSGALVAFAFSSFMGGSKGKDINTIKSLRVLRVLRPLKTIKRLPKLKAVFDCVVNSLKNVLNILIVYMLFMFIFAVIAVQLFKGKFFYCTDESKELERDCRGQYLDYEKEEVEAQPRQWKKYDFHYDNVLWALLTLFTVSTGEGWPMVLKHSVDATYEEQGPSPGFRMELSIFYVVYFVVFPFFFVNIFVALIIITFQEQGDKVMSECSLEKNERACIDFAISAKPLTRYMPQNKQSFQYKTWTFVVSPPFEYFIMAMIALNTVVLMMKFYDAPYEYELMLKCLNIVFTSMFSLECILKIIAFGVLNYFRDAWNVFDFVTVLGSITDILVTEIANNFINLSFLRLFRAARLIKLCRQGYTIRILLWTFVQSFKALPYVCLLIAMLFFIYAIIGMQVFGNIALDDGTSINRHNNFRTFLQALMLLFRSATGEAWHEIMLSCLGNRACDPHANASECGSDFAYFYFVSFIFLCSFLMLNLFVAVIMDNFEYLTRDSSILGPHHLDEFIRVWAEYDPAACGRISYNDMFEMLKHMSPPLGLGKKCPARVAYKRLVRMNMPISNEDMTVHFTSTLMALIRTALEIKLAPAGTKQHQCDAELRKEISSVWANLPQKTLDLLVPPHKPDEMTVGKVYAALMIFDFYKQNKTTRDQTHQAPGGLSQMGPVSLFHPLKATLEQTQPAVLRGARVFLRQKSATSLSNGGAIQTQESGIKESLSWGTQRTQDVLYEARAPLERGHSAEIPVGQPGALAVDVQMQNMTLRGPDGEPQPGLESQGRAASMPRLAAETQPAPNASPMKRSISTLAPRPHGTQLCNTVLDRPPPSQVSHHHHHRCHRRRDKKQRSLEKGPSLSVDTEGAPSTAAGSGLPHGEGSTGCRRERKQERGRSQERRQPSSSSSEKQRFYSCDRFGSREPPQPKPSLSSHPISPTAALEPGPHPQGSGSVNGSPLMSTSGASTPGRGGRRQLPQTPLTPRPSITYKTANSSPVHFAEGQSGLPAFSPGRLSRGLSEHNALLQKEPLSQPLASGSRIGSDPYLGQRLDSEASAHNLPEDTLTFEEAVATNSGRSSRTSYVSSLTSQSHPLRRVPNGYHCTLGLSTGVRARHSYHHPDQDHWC
T1 sequence (P54290 25-944 partner limits assumed): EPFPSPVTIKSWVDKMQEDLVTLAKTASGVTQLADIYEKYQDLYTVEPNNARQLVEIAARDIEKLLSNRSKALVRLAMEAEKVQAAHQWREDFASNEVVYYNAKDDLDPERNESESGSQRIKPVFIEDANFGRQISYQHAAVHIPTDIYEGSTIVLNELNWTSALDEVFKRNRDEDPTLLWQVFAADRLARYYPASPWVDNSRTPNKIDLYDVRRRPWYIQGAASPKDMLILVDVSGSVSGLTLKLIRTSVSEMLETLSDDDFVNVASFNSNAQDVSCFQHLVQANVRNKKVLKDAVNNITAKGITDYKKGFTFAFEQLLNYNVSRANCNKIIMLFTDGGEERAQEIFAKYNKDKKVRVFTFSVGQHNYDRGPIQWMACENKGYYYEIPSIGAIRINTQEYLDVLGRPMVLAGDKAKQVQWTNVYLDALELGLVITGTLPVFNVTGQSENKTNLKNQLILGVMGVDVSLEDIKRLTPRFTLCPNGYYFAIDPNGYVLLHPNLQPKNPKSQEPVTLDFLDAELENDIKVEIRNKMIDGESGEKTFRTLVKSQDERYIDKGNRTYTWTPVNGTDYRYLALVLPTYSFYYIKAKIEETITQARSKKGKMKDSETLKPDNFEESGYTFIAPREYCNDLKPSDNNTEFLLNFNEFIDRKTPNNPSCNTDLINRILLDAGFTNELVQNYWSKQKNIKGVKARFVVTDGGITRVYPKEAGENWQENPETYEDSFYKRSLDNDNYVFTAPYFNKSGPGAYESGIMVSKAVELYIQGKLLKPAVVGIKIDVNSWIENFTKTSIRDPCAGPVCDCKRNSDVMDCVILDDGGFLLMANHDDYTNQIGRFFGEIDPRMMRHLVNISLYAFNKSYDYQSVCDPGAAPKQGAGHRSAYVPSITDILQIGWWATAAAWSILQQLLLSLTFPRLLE
T1 sequence (P54290 945-1091 partner limits assumed): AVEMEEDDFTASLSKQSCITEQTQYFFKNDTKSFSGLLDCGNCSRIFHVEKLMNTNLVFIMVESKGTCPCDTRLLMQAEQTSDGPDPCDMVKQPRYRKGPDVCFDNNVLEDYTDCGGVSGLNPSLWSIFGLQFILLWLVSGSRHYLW
T1 sequence (P54283 whole entry partner): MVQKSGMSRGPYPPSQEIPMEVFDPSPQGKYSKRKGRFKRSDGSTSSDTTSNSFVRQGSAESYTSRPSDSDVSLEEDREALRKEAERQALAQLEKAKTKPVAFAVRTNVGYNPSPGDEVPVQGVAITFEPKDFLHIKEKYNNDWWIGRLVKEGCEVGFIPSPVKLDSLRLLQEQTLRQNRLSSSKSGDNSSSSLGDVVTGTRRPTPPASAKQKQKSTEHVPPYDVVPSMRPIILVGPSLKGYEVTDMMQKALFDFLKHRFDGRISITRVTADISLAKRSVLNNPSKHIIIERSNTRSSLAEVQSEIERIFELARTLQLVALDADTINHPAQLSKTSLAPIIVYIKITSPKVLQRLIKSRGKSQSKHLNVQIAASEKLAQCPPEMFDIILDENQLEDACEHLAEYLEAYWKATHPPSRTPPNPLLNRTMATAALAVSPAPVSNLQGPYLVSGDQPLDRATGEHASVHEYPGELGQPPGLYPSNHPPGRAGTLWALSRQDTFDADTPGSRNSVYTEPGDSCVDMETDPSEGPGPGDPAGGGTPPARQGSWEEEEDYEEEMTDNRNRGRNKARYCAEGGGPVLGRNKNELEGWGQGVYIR
T2 sequence (Q02294 whole entry): as the sequence (Q02294 whole entry) above
T2 sequence (P54290 25-944 partner limits assumed): as the sequence (P54290 25-944 partner limits assumed) above
T2 sequence (P54290 945-1091 partner limits assumed): as the sequence (P54290 945-1091 partner limits assumed) above
T2 sequence (P54283 whole entry partner): as the sequence (P54283 whole entry partner) above

With `c1ccc(CNC2CCN(CC(c3ccccc3)c3ccccc3)CC2)cc1` [Φ, Φ; CHCH2; CHNH; 1; Φ] the IC50 [1] was about 3000 nM.
`C(CCN1CCN(CC2CCCCC2)CC1)=C(c1ccccc1)c1ccccc1` [Φ, Φ; C═CH(CH2)2; N; 1; Cy] showed an IC50 [1] of 5200 nM.
`c1ccc(CN2CCN(CC(c3ccccc3)C3CCCCC3)CC2)cc1` (stereo not drawn) [Φ, Cy; CHCH2; N; 1; Φ] showed an IC50 [1] of about 5000 nM.
With `O=C(CCCCC(c1ccccc1)c1ccccc1)N1CCC(NCC2CCCCC2)CC1` [Φ, Φ; CH(CH2)4CO; CHNH; 1; Cy] the IC50 [1] was 750 nM.
`O=C(C(c1ccccc1)C1CCCCC1)N1CCN(CC(c2ccccc2)c2ccccc2)CC1` (stereo not drawn) [Φ, Cy; CHCO; N; 1; CHΦ2] showed an IC50 [1] of 35000 nM.
Work on `O=C(C(c1ccccc1)C1CCCCC1)N1CCN(Cc2ccccc2)CC1` (stereo not drawn) [Φ, Cy; CHCO; N; 1; Φ] yielded an IC50 [1] of 14200 nM.
In the case of `O=C(C(c1ccccc1)C1CCCCC1)N1CCN(CC=Cc2ccccc2)CC1` (stereo not drawn) [Φ, Cy; CHCO; N; 1; CH═CHΦ], the IC50 [1] is reported as 5900 nM.
`COc1cc(C(=O)N2CCN(C(c3ccc(F)cc3)c3ccc(F)cc3)CC2)cc(OC)c1OC` [39-36-2] was tested, and the IC50 [2, 5] was 0.07 µM, the “% Block (100 nM) 0.03 Hz” value ([2]; α1B (N-type)) was 29% and the “% Block (100 nM) 0.2 Hz” value ([2]; α1B (N-type)) was 60%. The IC50 [2, 6] was 0.32 µM, the IC50 [2, 7] was 0.07 µM and the IC50 [3, 8] was 0.4 µM. For the same compound, the “% Block (100 nM) 0.03 Hz” value ([3]; α1C (L-type), 0.03 Hz) was 11%, the “% Block (100 nM) 0.2 Hz” value ([3]; α1C (L-type), 0.2 Hz) was 22% and the IC50 [3, 9] was 2.1 µM. The IC50 [3, 10] was 0.4 µM, the IC50 [4, 11] was 0.11 µM and the “% Block (100 nM) 0.03 Hz” value ([4]; α1A (P/Q-type), 0.03 Hz) was 35%. The “% Block (100 nM) 0.2 Hz” value ([4]; α1A (P/Q-type), 0.2 Hz) was 52%, the IC50 [4, 12] was 0.31 µM and the IC50 [4, 13] was 0.11 µM.
With `c1ccc(C(CN2CCN(CC(c3ccccc3)C3CCCCC3)CC2)c2ccccc2)cc1` (stereo not drawn) [Φ, Cy; CHCH2; N; 1; CHΦ2] the IC50 [1] was 20000 nM.
`COc1ccc(/C=C/C(=O)N2CCN(C(=O)CCCCC(c3ccccc3)c3ccccc3)CC2)cc1` [SH-123A] was tested, and the IC50 [2, 5] was 0.09 µM, the “% Block (100 nM) 0.03 Hz” value ([2]; α1B (N-type)) was 19% and the “% Block (100 nM) 0.2 Hz” value ([2]; α1B (N-type)) was 55%. The IC50 [2, 6] was 0.47 µM, the IC50 [2, 7] was 0.09 µM and the IC50 [3, 8] was 0.25 µM. The “% Block (100 nM) 0.03 Hz” value ([3]; α1C (L-type), 0.03 Hz) was 21%, the “% Block (100 nM) 0.2 Hz” value ([3]; α1C (L-type), 0.2 Hz) was 37% and the IC50 [3, 9] was 0.62 µM. The IC50 [3, 10] was 0.25 µM, the IC50 [4, 11] was 0.07 µM and the “% Block (100 nM) 0.03 Hz” value ([4]; α1A (P/Q-type), 0.03 Hz) was 29%. For the same compound, the “% Block (100 nM) 0.2 Hz” value ([4]; α1A (P/Q-type), 0.2 Hz) was 61%, the IC50 [4, 12] was 0.26 µM and the IC50 [4, 13] was 0.07 µM.
For `O=C(CCCCC(c1ccccc1)C1CCCCC1)N1CCN(CC=Cc2ccccc2)CC1` (stereo not drawn) [Φ, Cy; CH(CH2)4CO; N; 1; CH═CHΦ], the IC50 [1] was 3900 nM.

— patent US7064128B2, “Preferentially substituted calcium channel blockers” (NeuroMed Technologies, Inc., priority 1998, dated 2006)
